The text below walks through data of patent US11478451B1, “Macrocyclic chlorine substituted indole derivatives” (Bayer Aktiengesellschaft, priority 2017, dated 2022).

The subject of data set [1] is SUDHL10 cells. The data set is described as follows: Induction of cytotoxicity (CellTiter-Glo, 5 h), SUDHL10. As to conditions: SUDHL10, 5 h. For orientation: ATP-based viability assays read luminescence as a measure of living cells.
In data set [2] the test system is SUDHL5 cells. In words: Induction of cytotoxicity (CellTiter-Glo, 5 h), SUDHL5. The following applies: SUDHL5, 5 h.
Data set [3] relates to SUDHL10 cells. The data set is described as follows: Induction of caspase-3/7 activity (Caspase-Glo 3/7), SUDHL10. It counts as cell-based. The following applies: EC50, median, SUDHL10, 3 h treatment. In outline:
(§1)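 Steps: seed the diffuse large B-cell lymphoma cells, leaving rim wells unused; add compounds; incubate 3 h at 37 °C; add Caspase-Glo 3/7 reagent; read; subtract medium-only background.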

A further data set concerns HMC-1-8 cells. The data set is described as follows: Antiproliferation assay (CellTiter-Glo, 72 h), HMC-1-8. It counts as cell-based. As to conditions: IC50, median, HMC-1-8, 72 h, read-out: Antiproli HMC-1-8 [M] median. In outline:
(§2)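 Luminescent ATP-based viability (CellTiter-Glo) measured after 72 h of compound treatment at 37 °C. A day 0 plate recorded at time zero served as the starting reference for proliferation.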

The test system of another data set is AMO-1 cells. In words: Antiproliferation assay (CellTiter-Glo, 72 h), AMO-1. It counts as cell-based. As to conditions: IC50, median, AMO-1, 72 h, read-out: Antiproli AMO-1 [M] median. In outline:
as §2

The test system of data set [4] is SUDHL5 cells. In words: Antiproliferation assay (CellTiter-Glo, 72 h), SUDHL5. The format is cell-based. As to conditions: IC50, median, SUDHL5, 72 h, read-out: Antiproli SUDHL5 [M] (median). The gist of the method:
as §2

Data set [5] has as its system SUDHL5 cells. The data set is described as follows: Induction of caspase-3/7 activity (Caspase-Glo 3/7), SUDHL5. The format is cell-based. As to conditions: EC50, median, SUDHL5, 3 h treatment. The gist of the method:
as §1

The mark [6] stands for this setting: Homo sapiens, SU-DHL10, 5 h, read-out: Cytotox SUDHL10 [M] (median), IC50, median.
Where [7] appears, read: Homo sapiens, SU-DHL-5, 5 h, read-out: Cytotox SUDHL5 [M] (median), IC50, median.
Setting [8] is: read-out: Cytotox SUDHL5 [M] (median), IC50, median.

Where a name gives a salt, the structure may show the parent alone. Read-outs that look alike come from different tables or passages of the source.

Consider `CCOC(=O)c1c(CCCOc2cccc3ccccc23)c2ccc(Cl)c3c2n1C[C@@H]1CC[C@@H]1COCc1nn(C)c(C)c1-3`, for which, for the setting “from CCOC(=O)c1[nH]c2c(-c3c(COC[C@H]4CC[C@H]4CO)nn(C)c3C)c(Cl)ccc2c1CCCOc1cccc2ccccc12, amine bond, PPh3/di-tert-butyl azodicarboxylate, THF, 14.5 mM”, the ring closure, yield of all isomers came to 34.5%.
For the compound `CCOC(=O)c1c(CCCOc2cccc3cc(F)ccc23)c2ccc(Cl)c3c2n1CC(F)(F)CCN(S(=O)(=O)c1ccccc1[N+](=O)[O-])Cc1nn(C)c(CC)c1-3`, the ring closure, yield of all isomers (from CCOC(=O)c1[nH]c2c(-c3c(CN(CCC(F)(F)COS(=O)(=O)C(F)(F)F)S(=O)(=O)c4ccccc4[N+](=O)[O-])nn(C)c3CC)c(Cl)ccc2c1CCCOc1cccc2cc(F)ccc12, amine bond, NaH, DMF, 259.0 mM) stood at 41.3%.
`CCOC(=O)c1c(CCCOc2cccc3cc(F)ccc23)c2ccc(Cl)c3c2n1CC(F)(F)CCOCc1nn(C)c(CC)c1-3` returned a ring closure, yield of all isomers (from CCOC(=O)c1[nH]c2c(-c3c(COCCC(F)(F)CO)nn(C)c3CC)c(Cl)ccc2c1CCCOc1cccc2cc(F)ccc12, amine bond, PPh3/di-tert-butyl azodicarboxylate (Mitsunobu), THF, 23.5 mM) of 81.9%.
The term EC50 denotes the midpoint of the concentration-response curve. Turning to `CCc1c2c(nn1C)COCCC(F)(F)Cn1c(C(=O)O)c(CCCOc3cccc4cc(F)ccc34)c3ccc(Cl)c-2c31` (single isomer, unassigned) [Example 98, (+)-4-chloro-3-ethyl-11,11-difluoro-7-{3-[(6-fluoronaphthalen-1-yl)oxy]propyl}-2-methyl-2,10,11,12,13,15-hexahydropyrazolo[4′,3′:9,10][1,6]oxazacycloundecino[8,7,6-hi]indole-8-carboxylic acid], the IC50 stood at 6.3e-06 M in the data set with SUDHL10 cells [1] (read-out: Cytotox SUDHL10 [M] (median), IC50, median, listed as 098); 7.3e-06 M with SUDHL5 cells [2] (read-out: Cytotox SUDHL5 [M] (median), IC50, median, listed as 098); 5.9e-06 M in the data set with HMC-1-8 cells (listed as 098); 6.9e-06 M with AMO-1 cells (listed as 098); 2.2e-06 M in the data set with SUDHL5 cells [4] (listed as 098). Further, the EC50 turned out to be 5000 nM with SUDHL10 cells [3] (listed as 098) and 6200 nM with SUDHL5 cells [5] (listed as 098).
In the case of `CCc1c2c(nn1C)CN(C)CC(F)(F)CCn1c(C(=O)O)c(CCCOc3cccc4cc(F)ccc34)c3ccc(Cl)c-2c31` (racemic) [Example 126, (rac)-4-Chloro-3-ethyl-12,12-difluoro-7-{3-[(6-fluoro-1-naphthyl)oxy]propyl}-2,14-dimethyl-10,11,12,13,14,15-hexahydro-2H-pyrazolo[3′,4′:8,9][1,6]diazacycloundecino[10,11,1-hi]indol-14-ium-8-carboxylate], the IC50 is 8.7e-07 M in the data set on SUDHL10 cells [1] (setting [6]); 5e-07 M with SUDHL5 cells [2] (setting [7]); 2.2e-06 M with HMC-1-8 cells (72 h); 3.7e-07 M with AMO-1 cells (Homo sapiens, AMO1, 72 h); 8.8e-07 M in the data set on SUDHL5 cells [4] (Homo sapiens, SU-DHL-5, 72 h). In addition, the EC50 in the data set with SUDHL10 cells [3] (Homo sapiens, SU-DHL10, 3 h) turned out to be 720 nM; in the data set on SUDHL5 cells [5] (Homo sapiens, SU-DHL-5, 3 h), 420 nM.
As for `CCc1c2c(nn1C)CCCN(CC(F)F)CCn1c(C(=O)O)c(CCCOc3cccc4cc(F)ccc34)c3ccc(Cl)c-2c31` (racemic) [Example 118, (rac)-4-chloro-12-(2,2-difluoroethyl)-3-ethyl-7-{3-[(6-fluoro-1-naphthyl)oxy]propyl}-2-methyl-10,11,12,13,14,15-hexahydro-2H-pyrazolo[3′,4′:8,9][1,4]diazacycloundecino[10,11,1-hi]indole-8-carboxylic acid], the IC50 in the data set with SUDHL10 cells [1] (read-out: Cytotox SUDHL10 [M] (median), IC50, median) came to 6.4e-07 M; with SUDHL5 cells [2] (setting [8]), 5.5e-07 M; in the data set on HMC-1-8 cells it was 2.5e-06 M; in the data set with AMO-1 cells (Homo sapiens, AMO1, 72 h) it was 5.1e-07 M; in the data set with SUDHL5 cells [4], 5.5e-07 M. Besides, the EC50 in the data set with SUDHL10 cells [3] came out at 510 nM; in the data set on SUDHL5 cells [5], 330 nM.
For the compound `CCc1c2c(nn1C)CCCN(CC(F)(F)C(F)F)CCn1c(C(=O)O)c(CCCOc3cccc4cc(F)ccc34)c3ccc(Cl)c-2c31` (racemic) [Example 123, (rac)-4-chloro-3-ethyl-7-{3-[(6-fluoro-1-naphthyl)oxy]propyl}-2-methyl-12-(2,2,3,3-tetrafluoropropyl)-10,11,12,13,14,15-hexahydro-2H-pyrazolo[3′,4′:8,9][1,4]diazacycloundecino[10,11,1-hi]indole-8-carboxylic acid], the IC50 in the data set on SUDHL10 cells [1] (setting [6]) was found to be 1.2e-06 M; in the data set with SUDHL5 cells [2] (setting [7]), 6.6e-07 M; in the data set on HMC-1-8 cells (72 h) it was 3.1e-06 M; in the data set on AMO-1 cells (Homo sapiens, AMO1, 72 h) it was 7.7e-07 M; in the data set on SUDHL5 cells [4] (Homo sapiens, SU-DHL-5, 72 h), 2.2e-06 M. For the same compound, the EC50 in the data set on SUDHL10 cells [3] (Homo sapiens, SU-DHL10, 3 h) amounted to 1100 nM; in the data set with SUDHL5 cells [5] (Homo sapiens, SU-DHL-5, 3 h), 470 nM.
`CCc1c2c(nn1C)COCC1CC1Cn1c(C(=O)O)c(CCCOc3cccc4cc(F)ccc34)c3ccc(Cl)c-2c31` (single isomer, unassigned; (+)) [Example 107]: the IC50 in the data set on SUDHL10 cells [1] (setting [6]) is 5.9e-07 M; with SUDHL5 cells [2] (setting [8]), 4.6e-07 M; with HMC-1-8 cells (72 h) it was 2.4e-06 M; with AMO-1 cells, 5.5e-07 M; in the data set with SUDHL5 cells [4], 7.2e-07 M. Further, the figures for the concentration giving a half-maximal response (EC50) with SUDHL10 cells [3] and in the data set on SUDHL5 cells [5] were 470 nM and 390 nM, respectively.
Take `Cc1c2c(nn1C)COCCC(F)(F)Cn1c(C(=O)O)c(CCCOc3cccc4ccccc34)c3ccc(Cl)c-2c31` [Example 95, 4-chloro-11,11-difluoro-2,3-dimethyl-7-{3-[(naphthalen-1-yl)oxy]propyl}-2,10,11,12,13,15-hexahydropyrazolo[4′,3′:9,10][1,6]oxazacycloundecino[8,7,6-hi]indole-8-carboxylic acid N-ethylethanamine salt]: the IC50 in the data set on SUDHL10 cells [1] (read-out: Cytotox SUDHL10 [M] (median), IC50, median, listed as 095) was determined as 4.5e-07 M; with SUDHL5 cells [2] (read-out: Cytotox SUDHL5 [M] (median), IC50, median, listed as 095), 7.7e-07 M; in the data set on HMC-1-8 cells (listed as 095), 7.2e-06 M; with AMO-1 cells (Homo sapiens, AMO1, 72 h), 9.7e-07 M; in the data set with SUDHL5 cells [4] (Homo sapiens, SU-DHL-5, 72 h) it was 1e-06 M. In addition, the half-maximal effective concentration (EC50) in the data set on SUDHL10 cells [3] (listed as 095) amounted to 870 nM; in the data set with SUDHL5 cells [5] (listed as 095) it was 550 nM.
Regarding `CCc1c2c(nn1C)COCC1(CCn3c(C(=O)O)c(CCCOc4cccc5ccccc45)c4ccc(Cl)c-2c43)CC1` (single isomer, unassigned; enantiomer 2) [Example 74, (+)-4′-chloro-3′-ethyl-2′-methyl-7′-{3-[(naphthalen-1-yl)oxy]propyl}-2′,10′,11′,15′-tetrahydro-13′H-spiro[cyclopropane-1,12′-pyrazolo[4′,3′:9,10][1,6]oxazacycloundecino[8,7,6-hi]indole]-8′-carboxylic acid-N-ethylethanamine salt (Enantiomer 2)], the IC50 in the data set with SUDHL10 cells [1] (setting [6]) is 4e-07 M; in the data set on SUDHL5 cells [2] (setting [7]), 4.1e-07 M; in the data set on HMC-1-8 cells (72 h) it was 9.4e-06 M; with AMO-1 cells (Homo sapiens, AMO1, 72 h) it was 1.3e-06 M; in the data set with SUDHL5 cells [4] (Homo sapiens, SU-DHL-5, 72 h), 7.6e-07 M. Further, the concentration giving a half-maximal response (EC50) in the data set on SUDHL10 cells [3] (Homo sapiens, SU-DHL10, 3 h) is 570 nM; in the data set with SUDHL5 cells [5] (Homo sapiens, SU-DHL-5, 3 h) it was 140 nM.
For `CCc1c2c(nn1C)COCCC(F)(F)Cn1c(C(=O)O)c(CCCOc3cccc4cc(F)ccc34)c3ccc(Cl)c-2c31` (racemic) [Example 96, (rac)-4-chloro-3-ethyl-11,11-difluoro-7-{3-[(6-fluoronaphthalen-1-yl)oxy]propyl}-2-methyl-2,10,11,12,13,15-hexahydropyrazolo[4′,3′:9,10][1,6]oxazacycloundecino[8,7,6-hi]indole-8-carboxylic acid], the IC50 came to 3.5e-07 M in the data set on SUDHL10 cells [1] (setting [6]); 4.7e-07 M in the data set on SUDHL5 cells [2] (setting [7]); 5.3e-06 M in the data set on HMC-1-8 cells (72 h); 4.9e-07 M with AMO-1 cells (Homo sapiens, AMO1, 72 h); 3.1e-07 M with SUDHL5 cells [4] (Homo sapiens, SU-DHL-5, 72 h). The half-maximal effective concentration (EC50) in the data set on SUDHL10 cells [3] (Homo sapiens, SU-DHL10, 3 h) stood at 210 nM; with SUDHL5 cells [5] (Homo sapiens, SU-DHL-5, 3 h), 480 nM.
On to `CCc1c2c(nn1C)COCC(F)(F)CCn1c(C(=O)O)c(CCCOc3cccc4cc(F)ccc34)c3ccc(Cl)c-2c31` (single isomer, unassigned) [Example 85, (−)-4-chloro-3-ethyl-12,12-difluoro-7-{3-[(6-fluoronaphthalen-1-yl)oxy]propyl}-2-methyl-2,10,11,12,13,15-hexahydropyrazolo[4′,3′:9,10][1,6]oxazacycloundecino[8,7,6-hi]indole-8-carboxylic acid], for which the IC50 with SUDHL10 cells [1] (setting [6]) was 9.8e-07 M; with SUDHL5 cells [2] (read-out: Cytotox SUDHL5 [M] (median), IC50, median, listed as 085), 3e-07 M; in the data set with HMC-1-8 cells (72 h) it was 3.3e-06 M; with AMO-1 cells (listed as 085), 4.9e-07 M; with SUDHL5 cells [4] (listed as 085) it was 3.6e-07 M. For the same compound, the 50% effective concentration (EC50) in the data set with SUDHL10 cells [3] (Homo sapiens, SU-DHL10, 3 h) was 320 nM; in the data set with SUDHL5 cells [5] (listed as 085) it was 180 nM.
